{"source": "patent US20180042918A1", "about": "“RESPIRATORY INFECTION TREATING AGENT” (KYORIN PHARMACEUTICAL CO., LTD., priority 2015, published 2018)", "key": {"[1]": {"test": "Clinical efficacy (cure rate) in patients with community-acquired pneumonia", "type": "in vivo, human", "details": "oral 75 mg once daily for 7 days, seven days after treatment completion", "protocol": "We investigated efficacy of compound D for the patients with community-acquired pneumonia. 50 patients with community-acquired pneumonia were orally administered 75 mg of compound D once daily for 7 days. The clinical efficacy (cure rate) was evaluated at seven days after treatment completion. The clinical trial was performed in accordance with a part of evaluation on patients with community-acquired pneumonia (pp. 34 to 38) in “general guidelines for the evaluation of new antimicrobial agents for the treatment of respiratory tract infections (second version).”"}, "[2]": {"test": "Concentration in tissue (human, oral administration): epithelial lining fluid, alveolar macrophages, plasma", "type": "in vivo", "details": "male, oral single dose 75 mg; for Kp: over 1 to 24 hours", "protocol": "Concentration of compound D in lung tissue (epithelial lining fluid and alveolar macrophages) and plasma was measured to investigate intrapulmonary distribution of compound D after oral single administration of this drug, with reference to a method in Document (Antimicrobial Agents and Chemotherapy, February 2010, pp. 866-870).\nThe measurement was as follows. Healthy adult male volunteers were given oral single dose of compound D (75 mg). The bronchoalveolar lavage fluid and blood samples were collected from the subjects at 1, 2, 4, 6, and 24 hours after the administration. The collection of the fluid and blood samples was carried out at each time point for six subjects. The bronchoalveolar lavage fluid was centrifuged to separate from epithelial lining fluid and alveolar macrophages for measurement of the drug concentration. The concentrations of compound D in lung tissue and plasma were measured by LC/MS/MS."}, "S. pneumoniae KY-9 [3]": {"tested_on": "S. pneumoniae KY-9", "test": "Number of bacteria in the lung, mouse lung infection", "type": "in vivo, Streptococcus pneumoniae", "protocol": "S. pneumoniae KY-9 was inoculated at 7.4×10^5 CFU/mouse via the respiratory tract into the lung in a mouse in which cyclophosphamide had been administrated. 2.9 to 3.1 hours, 17.3 to 19.1 hours, and 24.4 to 26.1 hours after the inoculation, the drug (the compound D, levofloxacin, or garenoxacin) was subcutaneously administrated (SC) or orally administrated (PO) three times in total. The number of bacteria in the lung 16.5 to 17.0 hours after the final administration was measured.\n“*” described in FIGS. 1 and 2 means that a significant difference of p<0.05 in a Vehicle group was observed, and “**” means that a significant difference of p<0.001 in the Vehicle group was observed (Dunnett's multiple comparison test, parametric).\nHere, CFU is an abbreviation of Colony Forming Unit, and represents the unit of number of bacteria. Log CFU/Lung means the number of viable bacteria in the lung. Log CFU/Lung was determined as follows. The lung obtained from the mouse was homogenated to obtain a bacterial culture. The bacterial culture was appropriately diluted, applied to an agar plate medium, and cultured. Log CFU/Lung was determined on the basis of the number of developed colonies."}, "S. pneumoniae KY-9 [4]": {"tested_on": "S. pneumoniae KY-9", "test": "Antibacterial activity against Streptococcus pneumoniae in vitro, CLSI microdilution", "type": "cell-based", "details": "KY9", "protocol": "The antibacterial activities in vitro of the compound D, garenoxacin, and levofloxacin against a strain in a mouse infected with Streptococcus pneumoniae (S. pneumonia KY-9) were measured in accordance with a CLSI microdilution method."}, "S. pneumoniae IID553": {"tested_on": "S. pneumoniae IID553", "test": "microbe, parasite or virus in culture", "type": "cell-based", "details": "Streptococcus pneumoniae"}, "[5]": {"test": "AUC and Cmax, plasma concentration by HPLC after repeated oral doses", "type": "in vivo", "details": "male, human, Japanese healthy adult males, oral 75 mg once daily for seven days, day 7, plasma", "protocol": "Six Japanese healthy adult males received oral doses of 75 mg compound D once daily for seven consecutive days. The plasma concentration of compound D was measured by the HPLC method, and the pharmacokinetic parameters were calculated."}, "[6]": {"details": "400 mg, patients with bacterial pneumonia; cited from earlier work"}, "[7]": {"details": "consecutive administration, daily dose of 400 mg; cited from earlier work"}, "[8]": {"details": "human, 2.5 to 3.5 hours after administration; cited from earlier work"}, "[9]": {"details": "alveolar macrophages, read-out: TISSUE DISTRIBUTION RATIO, ALVEOLAR MACROPHAGES"}, "[10]": {"details": "epithelial lining fluid, read-out: TISSUE DISTRIBUTION RATIO, ALVEOLAR EPITHELIAL LINING FLUID"}}, "note": "Like-named read-outs stand apart in the source and are kept apart here."}
{"smiles": "COc1c(N2C[C@H](CNC3CC3)[C@H](F)C2)c(F)cc2c(=O)c(C(=O)O)cn(CCF)c12.Cl", "note": "[Compound D, 7-[(3S,4S)-3-{(cyclopropylamino)methyl}-4-fluoropyrrolidine-1-yl]-6-fluoro-1-(2-fluoroethyl)-8-methoxy-4-oxo-1,4-dihydroquinoline-3-carboxylic acid hydrochloride]", "values": [{"measurement": "clinical efficacy (cure rate)", "setting": "[1]", "value": 90.0, "unit": "%"}, {"measurement": "Kp at 1 h", "setting": "[2]; [9]", "value": 31.9}, {"measurement": "Kp at 2 h", "setting": "[2]; [9]", "value": 18.5}, {"measurement": "Kp at 4 h", "setting": "[2]; [9]", "value": 21.9}, {"measurement": "Kp at 6 h", "setting": "[2]; [9]", "value": 56.4}, {"measurement": "Kp at 24 h", "setting": "[2]; [9]", "value": 38}, {"measurement": "Kp", "setting": "[2]; alveolar macrophages, read-out: tissue distribution ratio in alveolar macrophages, range", "value": "18.5 to 56.4"}, {"measurement": "Kp at 1 h", "setting": "[2]; [10]", "value": 22.5}, {"measurement": "Kp at 2 h", "setting": "[2]; [10]", "value": 18.4}, {"measurement": "Kp at 4 h", "setting": "[2]; [10]", "value": 16.5}, {"measurement": "Kp at 6 h", "setting": "[2]; [10]", "value": 15.2}, {"measurement": "Kp at 24 h", "setting": "[2]; [10]", "value": 15}, {"measurement": "Kp", "setting": "[2]; epithelial lining fluid, read-out: tissue distribution ratio in epithelial lining fluid, range", "value": "15 to 22.5"}, {"measurement": "therapeutic effect, number of bacteria in the lung", "setting": "S. pneumoniae KY-9 [3]; oral administration", "value": "excellent as compared with garenoxacin and levofloxacin"}, {"measurement": "decrease in number of bacteria in the lung versus Vehicle", "setting": "S. pneumoniae KY-9 [3]; subcutaneous, 6.3 mg and 25 mg/kg", "value": "significant dose-dependent decrease"}, {"measurement": "difference in number of viable bacteria in the lung, compound D versus garenoxacin", "setting": "S. pneumoniae KY-9 [3]; subcutaneous, 25 mg/kg groups", "value": "about 1,000 times"}, {"measurement": "MIC", "setting": "S. pneumoniae KY-9 [4]", "value": 0.06, "unit": "µg/mL"}, {"measurement": "MIC", "setting": "S. pneumoniae IID553", "value": 0.06, "unit": "µg/mL"}, {"measurement": "AUC", "setting": "[5]; read-out: area under the curve (AUC)", "value": 20600, "unit": "ng·h/mL"}, {"measurement": "Cmax", "setting": "[5]; read-out: maximum drug concentration (Cmax)", "value": 998, "unit": "ng/mL"}]}
{"smiles": "C[C@H]1NCc2cc(-c3ccc4c(=O)c(C(=O)O)cn(C5CC5)c4c3OC(F)F)ccc21", "note": "[GRNX, garenoxacin]", "values": [{"measurement": "clinical efficacy rate", "setting": "[6]", "value": 94.9, "unit": "%"}, {"measurement": "AUC", "setting": "[7]", "value": 110900, "unit": "ng·h/mL"}, {"measurement": "Cmax", "setting": "[7]", "value": 11060, "unit": "ng/mL"}, {"measurement": "significant decrease in number of bacteria in the lung versus Vehicle", "setting": "S. pneumoniae KY-9 [3]; subcutaneous, 6.3 mg/kg", "value": "not observed"}, {"measurement": "significant decrease in number of bacteria in the lung versus Vehicle", "setting": "S. pneumoniae KY-9 [3]; subcutaneous, 25 mg/kg", "value": "a significant decrease in number of bacteria in the lung was observed"}, {"measurement": "MIC", "setting": "S. pneumoniae KY-9 [4]", "value": 0.03, "unit": "µg/mL"}, {"measurement": "MIC", "setting": "S. pneumoniae IID553", "value": 0.06, "unit": "µg/mL"}, {"measurement": "tissue distribution ratio in the alveolar macrophages", "setting": "[8]", "value": "11.15±8.16"}, {"measurement": "tissue distribution ratio in the epithelial lining fluid", "setting": "[8]", "value": "0.95±0.41"}]}
